According to patent US12097213B2, “Sequential treatment of cancers using 6-thio-dG, checkpoint inhibitors and radiation therapy” (The Board of Regents of the University of Texas System, priority 2020, dated 2024):

What was measured:
[1] = test system: DCs co-cultured with MC38 cells; experiment: Detection of EdU-labeled tumor DNA in bone marrow derived dendritic cells; assay type: cell-based, mouse; details: MC38 labeled with 25 μM EdU, 1 μM 6-thio-dG
Description: Detection of DNA in Bone Marrow Derived Dendritic Cells. Cells were labeled with EdU as described previously (Min et al., 2019). Briefly, 100,000 MC38 cells were seeded to 6-well plate and labeled with 25 μM EdU. Two days later, cells were washed out and treated with 1 μM 6-thio-dG for 24 hrs. Cells were washed out again and co-cultured with BMDCs for overnight. Next day, DCs were sorted out with magnetic beads, washed, fixed and cytospun. Slides were then stained with 6-carboxytetramethlyrhodamine fluorescent azide (Invitrogen) in fresh homemade EdU-staining solution (PBS containing 1 mM CuSO4, 2 mM ascorbic acid) for 30 min. Slides were then washed vigorously with PBS for at least 1 hr, and then telomere FISH steps using a FAM-TelG probe were followed as described in “Telomere dysfunction Induced Foci (TIF) and micronuclei assays” method parts. Images were captured at 63× magnification with an Axio Imager Z2 equipped with an automatic metaphase capture system (Coolcubel camera) and analyzed with ISIS software (Metasystems).

[2] = test system: LLC murine lung tumor cells; experiment: LLC tumor growth and treatment in mice; assay type: in vivo, mouse
Description: Tumor growth and treatment. A total of 5×10^5 MC38, 5×10^5 CT26 or 1×10^6 LLC cells were inoculated subcutaneously into right dorsal flanks of the mice in 100 μL phosphate buffered saline (PBS). Tumor-bearing mice were randomly grouped into treatment groups when tumors grew to around 100 mm^3. […] For CSF1R, NKL.1, CD4+ and CD8+ T cell depletion, 200 μg of antibodies were intraperitoneally injected 1 day before treatment initiation and then twice a week for 2 weeks. For PD-L1 blockade combination therapy in MC38 model, 6-thio-dG was given on day 10 and day 11, 50 μg PD-L1 was intraperitoneally injected on day 13 and 17. For PD-L1 blockade combination therapy in LLC model, 6-thio-dG was given on day 4, 5, 6, 10 and 11, 200 μg PD-L1 was intraperitoneally injected on day 8 and 13. Tumor volumes were measured by the length (a), width (b) and height (h) and calculated as tumor volume=abh/2.

TBK1 = experiment: Immunoblotting of DCs after co-culture; assay type: cell-based, mouse; details: co-culture 6 hrs with MC38 pretreated with 0.2 μM or 1 μM 6-thio-dG
Description: Immunoblotting. BMDC and MC38 treatment were same as “In vitro co-culture of bone marrow dendritic cells”. 6 hrs after co-culture, DC was isolated with CD11c+ positive selection kit (Stemcell). Protein sample preparation and immunoblot procedures were performed as previously described (Liu et al., 2019). Proteins were detected with rabbit monoclonal antibodies for pSTING (Cell signaling, 72971), STING (Cell signaling, 50494), pTBK1 (Cell signaling, 5483), TBK1 (Cell signaling, 3504). Protein loading was determined with antibodies against with Cyclophilin A (Cell signaling, 2175). Anti-rabbit (1:2000 in 5% BSA) was used for secondary antibody (Cell signaling, 7074). X-ray film (GeneMate, F-9024-8X10) was used to develop the membranes. Clarity Max Western ECL Substrate (Biorad, 1705062) or Supersignal West PicoPlus Chemiluminescent Substrate (Thermoscientific, 34577) was used for chemiluminescent western blot.

[3] = test system: LLC murine lung cancer cells; experiment: Cell viability assay (CellTiter 96), LLC; assay type: cell-based, mouse; details: treated for 4 days
Description: (§1) Cell viability assay. For determination of IC50 with cell proliferation assays, murine and human cancer cell lines were screened with 6-thio-dG with a 2-fold dilution series in 8 different points in 96-well plates. Cells were plated 24 hrs prior to the addition of drug, incubated for 4-5 days, and assayed using CellTiter 96® Aqueous One Solution Cell Proliferation Assay according to the manufacturer's instructions (Promega). Cell number per well ranged from 1,000 to 10,000 cells per well inversely proportional to doubling times. Dose response curves were generated and IC50s calculated using Graphpad Prism. All samples were analyzed in triplicate and standard deviations are from 2-3 independent experiments.

MC38 cells [4] = experiment: Cell viability assay (CellTiter 96), MC38; assay type: cell-based; details: Mus musculus, MC-38, 120 h; cells treated for 5 days; read-out: IC50 concentration, cell viability
Description: as §1

MC38 cells [5] = experiment: Telomere dysfunction Induced Foci (TIF) and micronuclei assays in cells; assay type: cell-based, mouse
Description: Telomere dysfunction Induced Foci (TIF) and micronuclei assays. The TIF assay is based on the co-localization detection of DNA damage by an antibody against DNA damage response factors such as gamma-H2AX, 53BP1, and antibody against telomeric proteins or telomeres using telomere sequence-specific peptide nucleic acid (PNA) probe (Mender and Shay, 2015). Briefly, cells were seeded into 4-well chamber slides. Next day, cells were treated with 1 μM 6-thio-dG for 24 hrs (for TIF assay) or 1-3 μM 6-thio-dG for 48 hrs (for micronuclei assay). Slides were then rinsed twice with PBS and fixed in 4% formaldehyde (Thermo Fisher) in PBS for 10 mins. Then, cells were washed twice with PBS and permeabilized in 0.5% Triton X-100 in PBS for 10 min. Following permeabilization, cells were washed three times with PBS. Cells were blocked with 10% goat serum in 0.1% PBST (TritonX-100) for 1 hr. Gamma-H2AX (TIF assay, mouse, 1:1000) (Millipore) or lamin A/C (micronuclei assay, mouse, 1:500) (Santa Cruz) was diluted in blocking solution and incubated on cells for 2 hrs. Following three washes with PBST (1×PBS in 0.1% Triton) and 3 washes with PBS, cells were incubated with Alexaflour 568 conjugated goat anti-mouse (1:500) (Invitrogen) for 40 mins, then washed five times with 0.1% PBST. Cells were fixed in 4% formaldehyde in PBS for 20 mins at RT. The slides were sequentially dehydrated with 70%, 90%, 100% ethanol followed by denaturation with hybridization buffer containing FAM-conjugated telomere sequence (C-rich)-specific PNA probe, 70% formamide, 30% 2×SSC, 10% (w/v) MgCl2·6H2O (Fisher Sci), 0.25% (w/v) blocking reagent for nucleic acid hybridization and detection (Roche) for 7 mins at 80° C. on a heat block, followed by overnight incubation at RT. Slides were washed sequentially with 70% formamide (Ambion)/0.6×SSC (Invitrogen) (2×1 hr), 2×SSC (1×15 mins), PBS (1×5 mins) and sequentially dehydrated with 70%, 90%, 100% ethanol, then mounted with Vectashield mounting medium with DAPI (Vector Laboratories). […] TIFs were quantified using Image J.

## Nc1nc2c(ncn2[C@H]2C[C@H](O)[C@@H](CO)O2)c(=S)[nH]1 [6-thio-dG, 6-thio-2′-deoxyguanosine]
[1]
  telomere co-localization with EdU in EdU+ DCs: increase
[2]; C57BL/6 mice, 3 mg/kg, three days treatment (days 4, 5, 6)
  tumor growth: significant tumor growth delay
[2]; lewis lung carcinoma, three days 6-thio-dG followed two days later with anti-PD-L1
  tumor growth (FIG. 8A): significant tumor control for 20 days
TBK1
  TBK1 phosphorylation in DCs: increase
[3]
  cell viability in vitro: cell viability inhibition
MC38 cells [4]
  IC50: 370 nM
MC38 cells [5]
  interphase bridges between daughter cells during telophase: induced interphase bridges
MC38 cells [5]; 1 μM 6-thio-dG for 24 hrs
  telomere stress by TIF assay: induced telomere damages
MC38 cells [5]; 1 μM 6-thio-dG, 48 hrs
  micronuclei: induced micronuclei
